Experimental data from US12161722B2, “Bifunctional heterocyclic compound having BTK degradation function via ubiquitin proteasome pathway, and use thereof” (KOREA RESEARCH INSTITUTE OF CHEMICAL TECHNOLOGY, priority 2021, dated 2024).

biological target: T1, WT BTK protein (Homo sapiens, UniProt Q06187); test: BTK protein degradation assay (Western blotting), WT BTK; assay type: cell-based; conditions: concentration range accounting for 50% degradation of WT BTK protein, TMD-8 or RAMOS cells, 24 hours
T1 construct: measured for intracellular BTK protein levels by Western blotting; endogenous in cells; host or cells: TMD-8 or RAMOS cells
Procedure, shortened: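 TMD-8 cells (1×10^6 cells/mL) treated 24 h with compound serial dilutions, then lysed in RIPA. Equal protein loads analysed by Western blot for BTK with GAPDH/β-actin as loading controls; activity binned by concentration giving 50% WT BTK degradation.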

T1 sequence (Q06187 whole entry): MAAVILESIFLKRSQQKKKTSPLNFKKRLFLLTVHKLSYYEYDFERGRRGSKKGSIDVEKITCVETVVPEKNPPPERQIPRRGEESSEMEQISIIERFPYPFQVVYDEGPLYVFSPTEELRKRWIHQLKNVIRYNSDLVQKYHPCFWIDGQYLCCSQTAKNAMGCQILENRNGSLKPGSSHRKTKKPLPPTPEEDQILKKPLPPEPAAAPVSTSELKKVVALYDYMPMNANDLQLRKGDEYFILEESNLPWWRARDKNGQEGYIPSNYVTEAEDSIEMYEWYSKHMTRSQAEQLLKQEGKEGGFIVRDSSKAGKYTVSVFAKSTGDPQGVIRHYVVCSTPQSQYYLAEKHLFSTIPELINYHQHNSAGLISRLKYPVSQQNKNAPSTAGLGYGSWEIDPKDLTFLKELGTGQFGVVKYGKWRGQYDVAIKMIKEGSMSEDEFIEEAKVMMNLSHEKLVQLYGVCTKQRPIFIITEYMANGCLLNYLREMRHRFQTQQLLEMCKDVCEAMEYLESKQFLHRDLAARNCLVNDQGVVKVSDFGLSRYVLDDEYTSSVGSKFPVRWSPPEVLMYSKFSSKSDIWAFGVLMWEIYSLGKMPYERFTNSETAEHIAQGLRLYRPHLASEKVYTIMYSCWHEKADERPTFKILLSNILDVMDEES

SMILES	DC50 [nM]
Cc1cccc(C)c1Nc1nn(C)c2nc(Nc3ccc(N4CCN(C[C@H]5CCN(c6ccc7c(c6)C(=O)N(C6CCC(=O)NC6=O)C7=O)C5)CC4)nc3)ncc12 (stereo partly drawn) [Compound 154, 5-((R)-3-((4-(5-((3-((2,6-Dimethylphenyl)amino)-1-methyl-1H-pyrazolo[3,4-d]pyrimidin-6-yl)amino)pyridin-2-yl)piperazin-1-yl)methyl)pyrrolidin-1-yl)-2-(2,6-dioxopiperidin-3-yl)isoindoline-1,3-dione]	0.1 to 10
Cc1cccc(C)c1Nc1nn(C)c2nc(Nc3ccc(N4CCN(C[C@@H]5CCN(c6ccc7c(c6)C(=O)N(C6CCC(=O)NC6=O)C7=O)C5)CC4)nc3)ncc12 (stereo partly drawn) [Compound 155, 5-((S)-3-((4-(5-((3-((2,6-dimethylphenyl)amino)-1-methyl-1H-pyrazolo[3,4-d]pyrimidin-6-yl)amino)pyridin-2-yl)piperazin-1-yl)methyl)pyrrolidin-1-yl)-2-(2,6-dioxopiperidin-3-yl)isoindoline-1,3-dione]	0.1 to 10
Cc1cccc(C)c1Nc1nn(C)c2nc(Nc3ccc(N4CCN(C5CCN(c6ccc7c(c6)C(=O)N(C6CCC(=O)NC6=O)C7=O)CC5)CC4)nc3)ncc12 (centres unmarked) [Compound 156, 5-(4-(4-(5-((3-((2,6-dimethylphenyl)amino)-1-methyl-1H-pyrazolo[3,4-d]pyrimidin-6-yl)amino)pyridin-2-yl)piperazin-1-yl)piperidin-1-yl)-2-(2,6-dioxopiperidin-3-yl)isoindoline-1,3-dione]	0.1 to 10
Cc1cccc(C)c1Nc1nn(C)c2nc(Nc3ccc(N4CCN(CCC5CCN(c6ccc7c(c6)C(=O)N(C6CCC(=O)NC6=O)C7=O)CC5)CC4)nc3)ncc12 (centres unmarked) [Compound 157, 5-(4-(2-(4-(5-((3-((2,6-dimethylphenyl)amino)-1-methyl-1H-pyrazolo[3,4-d]pyrimidin-6-yl)amino)pyridin-2-yl)piperazin-1-yl)ethyl)piperidin-1-yl)-2-(2,6-dioxopiperidin-3-yl)isoindoline-1,3-dione]	0.1 to 10
Cc1cccc(C)c1Nc1nn(C)c2nc(Nc3ccc(N4CCN(C5CN(c6ccc7c(c6)C(=O)N(C6CCC(=O)NC6=O)C7=O)C5)CC4)nc3)ncc12 (centres unmarked) [Compound 158, 5-(3-(4-(5-((3-((2,6-Dimethylphenyl)amino)-1-methyl-1H-pyrazolo[3,4-d]pyrimidin-6-yl)amino)pyridin-2-yl)piperazin-1-yl)azetidin-1-yl)-2-(2,6-dioxopiperidin-3-yl)isoindoline-1,3-dione]	0.1 to 10
Cc1cccc(C)c1Nc1nn(C)c2nc(Nc3ccc(N4CCN(C[C@H]5CCCN(c6ccc7c(c6)C(=O)N(C6CCC(=O)NC6=O)C7=O)C5)CC4)nc3)ncc12 (stereo partly drawn) [Compound 160, 5-((R)-3-((4-(5-((3-((2,6-Dimethylphenyl)amino)-1-methyl-1H-pyrazolo[3,4-d]pyrimidin-6-yl)amino)pyridin-2-yl)piperazin-1-yl)methyl)piperidin-1-yl)-2-(2,6-dioxopiperidin-3-yl)isoindoline-1,3-dione]	0.1 to 10

Now from value to compound:

DC50 [nM]	SMILES
0.1 to 10	Cc1cccc(C)c1Nc1nn(C)c2nc(Nc3ccc4c(c3)CN(CCC3CCN(c5ccc6c(c5)C(=O)N(C5CCC(=O)NC5=O)C6=O)CC3)CC4)ncc12 (centres unmarked) [Compound 146, 5-(4-(2-(7-((3-((2,6-Dimethylphenyl)amino)-1-methyl-1H-pyrazolo[3,4-d]pyrimidin-6-yl)amino)-3,4-dihydroisoquinolin-2 (1H)-yl)ethyl)piperidin-1-yl)-2-(2,6-dioxopiperidin-3-yl)isoindoline-1,3-dione]
0.1 to 10	Cc1cccc(C)c1Nc1nn(C)c2nc(Nc3ccc4c(c3)CN(CC3CCN(C5CN(c6ccc7c(c6)C(=O)N(C6CCC(=O)NC6=O)C7=O)C5)CC3)CC4)ncc12 (centres unmarked) [Compound 147, 5-(3-(4-((7-((3-((2,6-Dimethylphenyl)amino)-1-methyl-1H-pyrazolo[3,4-d]pyrimidin-6-yl)amino)-3,4-dihydroisoquinolin-2 (1H)-yl)methyl)piperidin-1-yl)azetidin-1-yl)-2-(2,6-dioxopiperidin-3-yl)isoindoline-1,3-dione]
0.1 to 10	Cc1cccc(C)c1Nc1nn(C)c2nc(Nc3ccc4c(c3)CN(C[C@@H]3[C@H]5CN(c6ccc7c(c6)C(=O)N(C6CCC(=O)NC6=O)C7=O)C[C@@H]35)CC4)ncc12 (stereo partly drawn) [Compound 148, 5-((1R,5S,6S)-6-((7-((3-((2,6-Dimethylphenyl)amino)-1-methyl-1H-pyrazolo[3,4-d]pyrimidin-6-yl)amino)-3,4-dihydroisoquinolin-2 (1H)-yl)methyl)-3-azabicyclo[3.1.0]hexan-3-yl)-2-(2,6-dioxopiperidin-3-yl)isoindoline-1,3-dione]
0.1 to 10	Cc1cccc(C)c1Nc1nn(C)c2nc(Nc3ccc4c(c3)CN(C3CN(C[C@H]5CCN(c6ccc7c(c6)C(=O)N(C6CCC(=O)NC6=O)C7=O)C5)C3)CC4)ncc12 (stereo partly drawn) [Compound 150, 5-((R)-3-((3-(7-((3-((2,6-Dimethylphenyl)amino)-1-methyl-1H-pyrazolo[3,4-d]pyrimidin-6-yl)amino)-3,4-dihydroisoquinolin-2 (1H)-yl)azetidin-1-yl)methyl)pyrrolidin-1-yl)-2-(2,6-dioxopiperidin-3-yl)isoindoline-1,3-dione]
0.1 to 10	Cc1cccc(C)c1Nc1nn(C)c2nc(Nc3ccc4c(c3)CN(C3CN(C[C@@H]5CCN(c6ccc7c(c6)C(=O)N(C6CCC(=O)NC6=O)C7=O)C5)C3)CC4)ncc12 (stereo partly drawn) [Compound 151, 5-((S)-3-((3-(7-((3-((2,6-Dimethylphenyl)amino)-1-methyl-1H-pyrazolo[3,4-d]pyrimidin-6-yl)amino)-3,4-dihydroisoquinolin-2 (1H)-yl)azetidin-1-yl)methyl)pyrrolidin-1-yl)-2-(2,6-dioxopiperidin-3-yl)isoindoline-1,3-dione]
0.1 to 10	Cc1cccc(C)c1Nc1nn(C)c2nc(Nc3ccc4c(c3)CN(C3CN(CC5CN(c6ccc7c(c6)C(=O)N(C6CCC(=O)NC6=O)C7=O)C5)C3)CC4)ncc12 (centres unmarked) [Compound 152, 5-(3-((3-(7-((3-((2,6-Dimethylphenyl)amino)-1-methyl-TH-pyrazolo[3,4-d]pyrimidin-6-yl)amino)-3,4-dihydroisoquinolin-2 (1H)-yl)azetidin-1-yl)methyl)azetidin-1-yl)-2-(2,6-dioxopiperidin-3-yl)isoindoline-1,3-dione]
0.1 to 10	Cc1cccc(C)c1Nc1nn(C)c2nc(Nc3ccc4c(c3)CN(C3CN(C[C@@H]5[C@H]6CN(c7ccc8c(c7)C(=O)N(C7CCC(=O)NC7=O)C8=O)C[C@@H]56)C3)CC4)ncc12 (stereo partly drawn) [Compound 153, 5-((1R,5S,6S)-6-((3-(7-((3-((2,6-Dimethylphenyl)amino)-1-methyl-1H-pyrazolo[3,4-d]pyrimidin-6-yl)amino)-3,4-dihydroisoquinolin-2 (1H)-yl)azetidin-1-yl)methyl)-3-azabicyclo[3.1.0]hexan-3-yl)-2-(2,6-dioxopiperidin-3-yl)isoindoline-1,3-dione]
0.1 to 10	Cc1cccc(C)c1Nc1nn(C)c2nc(Nc3ccc(N4CCN(CC5CN(c6ccc7c(c6)C(=O)N(C6CCC(=O)NC6=O)C7=O)C5)CC4)nc3)ncc12 (centres unmarked) [Compound 159, 5-(3-((4-(5-((3-((2,6-dimethylphenyl)amino)-1-methyl-1H-pyrazolo[3,4-d]pyrimidin-6-yl)amino)pyridin-2-yl)piperazin-1-yl)methyl)azetidin-1-yl)-2-(2,6-dioxopiperidin-3-yl)isoindoline-1,3-dione]
